The assay concerns iron accumulation in dentate nuclei. Description: MRI R2* measurement of brain iron in the pilot trial. The assay is classed as in vivo, human. Conditions: 20-30 mg/kg/day oral, patients before 17.4±1.6, controls 13.7±0.6. The text has this:
Multiple-gradient echo sequence was used to monitor the iron concentrations in the brain (Waldvogel et al. Increased iron in the dentate nucleus of patients with Friedrich's ataxia. Ann Neurol 1999; 46:123-5), using a 1.5T Signa unit (GE Medical Systems, Milwaukee, Wisc., USA) using phase array head coil. Deep gray structures were localized by using a T2*-weighted echo-planar sequence (TR 3000 ms, TE 60 ms, eight averages, field of view: 24 cm, 256×224 matrix and slice thickness : 5 mm, 24 slices/1.1 min). A voxel englobing the left and right nuclei was positioned on the largest section of dentate nuclei (dimensions 6×3×2 cm^3). Data acquisition allowing iron monitoring was performed by using a single-slice multi-gradient-echo sequence (TR: 400 ms, flip angle: 50° to maximize gray matter signal, acquisition time: 3 minutes).
The determination of R2* was performed by using data of the multi-gradient echo sequence. In each pixel, the signals Si of the ten images obtained at echo times TEi (−i=1.10) were used to calculate the parameter R2* by adjustment of the signal decay according to the equation Si=So.exp (−R2*.TEi). A parametric image of local R2* values was calculated with the same spatial resolution than the native images. The mean value of R2* was calculated in various regions of interest, all determined by the same experimental radiologist. […]

We go through 1 compound from patent US20090023784A1, “USE OF DEFERIPRONE AND METHODS TO TREAT AND/OR PREVENT FRIEDREICH ATAXIA RESULTING FROM INTRACELLULAR MISHANDLING OF IRON” (priority 2006, published 2009).

For `Cc1c(O)c(=O)ccn1C` [Deferiprone, 3-hydroxy-1,2-dimethylpyridin-4-one], the “relaxation rate R2* in dentate nuclei” value was found to be 16.6 ± 1.3 s⁻¹ (after one month) and 15.9 ± 0.6 s⁻¹ (after two months).
